Assay results published in US10358442B2, “2-homopiperazine-1-yl-4H-1,3-benzothiazine-4-one derivatives and process for the preparation of 2-(homo)piperazine 1,3-benzothiazine-4-one hydrochlorides” (Ecole Polytechnique Federale De Lausanne (EPFL), priority 2015, dated 2019).

tested on: M. tuberculosis NTB1; format: cell-based

Question: `O=c1nc(N2CCN(CC3CCCCC3)CC2)sc2c([N+](=O)[O-])cc(C(F)(F)F)cc12` [PBTZ169, 2-[4-(cyclohexylmethyl)piperazin-1-yl]-8-nitro-6-(trifluoromethyl)-4H-1,3-benzothiazin-4-one, reference compound] was tested. Which “NTB1 MIC99” value did it give?
Answer: The value was greater than 100 µg/mL.

Question: With `Cl.O=c1nc(N2CCCN(CCC3CCCCC3)CC2)sc2c([N+](=O)[O-])cc(C(F)(F)F)cc12` [Compound 4, 2-[4-(2-Cyclohexylethyl)-1,4-diazepan-1-yl]-8-nitro-6-(trifluoromethyl)-4H-1,3-benzothiazin-4-one Hydrochloride] as the compound, how does the “NTB1 MIC99” value read?
Answer: The value was greater than 10 µg/mL.

Question: `CCCCCN1CCCN(c2nc(=O)c3cc(C(F)(F)F)cc([N+](=O)[O-])c3s2)CC1.Cl` [Compound 2, 8-Nitro-2-(4-pentyl-1,4-diazepan-1-yl)-6-(trifluoromethyl)-4H-1,3-benzothiazin-4-one Hydrochloride] was tested. Which “NTB1 MIC99” value did it give?
Answer: Its value is greater than 10 µg/mL.

Question: How did the “NTB1 MIC99” value turn out when `CCCCCCCN1CCCN(c2nc(=O)c3cc(C(F)(F)F)cc([N+](=O)[O-])c3s2)CC1.Cl` [Compound 5, 2-(4-Heptyl-1,4-diazepan-1-yl)-8-nitro-6-(trifluoromethyl)-4H-1,3-benzothiazin-4-one Hydrochloride] was run?
Answer: Its value is 13.8 µg/mL.

Question: How did the “NTB1 MIC99” value turn out when `Cl.O=c1nc(N2CCCN(C3CCCCC3)CC2)sc2c([N+](=O)[O-])cc(C(F)(F)F)cc12` [Compound 6, 2-(4-Cyclohexyl-1,4-diazepan-1-yl)-8-nitro-6-(trifluoromethyl)-4H-1,3-benzothiazin-4-one Hydrochloride] was run?
Answer: Its value is 50.5 µg/mL.

Question: How did the “NTB1 MIC99” value turn out when `CCCCCCN1CCCN(c2nc(=O)c3cc(C(F)(F)F)cc([N+](=O)[O-])c3s2)CC1.Cl` [Compound 3, 2-(4-Hexyl-1,4-diazepan-1-yl)-8-nitro-6-(trifluoromethyl)-4H-1,3-benzothiazin-4-one Hydrochloride] was run?
Answer: Its value is greater than 10 µg/mL.

Question: `Cl.O=c1nc(N2CCCN(CCc3ccccc3)CC2)sc2c([N+](=O)[O-])cc(C(F)(F)F)cc12` [Compound 7, 8-Nitro-2-[4-(2-phenylethyl)-1,4-diazepan-1-yl]-6-(trifluoromethyl)-4H-1,3-benzothiazin-4-one Hydrochloride] was tested. Which “NTB1 MIC99” value did it give?
Answer: The value was 27.1 µg/mL.
